Laboratory results as given in paper PMC9212491 (Antiviral Research, 2022).

Key:
rSARS-CoV-2/Nluc = test: microbe, parasite or virus in culture; assay type: cell-based, SARS-CoV-2; settings: for EC50: Severe acute respiratory syndrome coronavirus 2, Calu-3, read-out: EC50, SARS-CoV-2 infection, Calu-3 cells
JAK2 = settings: ref Stebbing et al.,2021; Klaeger et al.,2017; cited from earlier work
TYK2 = settings: ref Stebbing et al.,2021; Klaeger et al.,2017; cited from earlier work
EGFR = settings: ref Asquith et al., 2019a, 2019b; Davis et al.,2011; cited from earlier work
STK10 = settings: ref Asquith et al., 2019a, 2019b; Davis et al.,2011; cited from earlier work
YSK4 = settings: ref Asquith et al., 2019a, 2019b; Davis et al.,2011; cited from earlier work
SLK = settings: ref Asquith et al., 2019a, 2019b; Davis et al.,2011; cited from earlier work
AAK1 = AAK1 (Homo sapiens, UniProt Q2M2I8); test: In vitro binding, dissociation constant
BIKE = BIKE (Homo sapiens, UniProt Q9NSY1); test: In vitro binding, dissociation constant
[1] = alamarBlue viability, infected Vero E6 cells; assay type: cell-based; settings: African green monkey, 24 hpi
[2] = alamarBlue viability, infected Calu-3 cells; assay type: cell-based; settings: human
RIPK2 = settings: ref Asquith et al., 2019a, 2019b; cited from earlier work
ADCK3 = settings: ref Asquith et al., 2019a, 2019b; cited from earlier work
NLK = settings: ref Asquith et al., 2019a, 2019b; cited from earlier work
PDGFRβ = settings: ref Davis et al.,2011; cited from earlier work

Chain of AAK1 (Q2M2I8 whole entry): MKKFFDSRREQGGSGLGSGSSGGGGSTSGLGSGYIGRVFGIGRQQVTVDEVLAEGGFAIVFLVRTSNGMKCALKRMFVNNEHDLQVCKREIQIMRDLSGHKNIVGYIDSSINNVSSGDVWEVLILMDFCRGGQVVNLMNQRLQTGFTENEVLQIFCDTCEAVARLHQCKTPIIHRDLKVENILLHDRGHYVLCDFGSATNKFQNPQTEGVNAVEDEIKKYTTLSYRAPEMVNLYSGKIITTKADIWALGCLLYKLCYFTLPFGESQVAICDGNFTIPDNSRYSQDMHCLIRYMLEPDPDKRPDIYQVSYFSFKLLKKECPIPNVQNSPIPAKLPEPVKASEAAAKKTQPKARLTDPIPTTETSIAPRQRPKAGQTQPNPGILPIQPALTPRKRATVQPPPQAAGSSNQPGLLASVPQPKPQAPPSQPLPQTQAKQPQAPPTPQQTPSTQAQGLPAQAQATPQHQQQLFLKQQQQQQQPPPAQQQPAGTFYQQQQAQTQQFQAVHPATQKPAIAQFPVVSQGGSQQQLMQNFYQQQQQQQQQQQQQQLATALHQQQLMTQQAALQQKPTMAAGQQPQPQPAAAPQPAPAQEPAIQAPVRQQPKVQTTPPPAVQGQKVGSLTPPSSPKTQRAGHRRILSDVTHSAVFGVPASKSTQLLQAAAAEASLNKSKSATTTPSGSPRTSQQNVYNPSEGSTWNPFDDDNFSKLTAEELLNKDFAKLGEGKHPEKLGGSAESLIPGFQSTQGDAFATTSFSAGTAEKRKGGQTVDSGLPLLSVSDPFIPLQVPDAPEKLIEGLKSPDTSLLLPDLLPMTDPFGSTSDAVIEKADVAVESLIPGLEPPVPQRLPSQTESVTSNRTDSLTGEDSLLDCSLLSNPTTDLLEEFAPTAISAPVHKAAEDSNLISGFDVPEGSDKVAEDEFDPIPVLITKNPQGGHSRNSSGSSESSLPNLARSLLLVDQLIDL
Chain of BIKE (Q9NSY1 whole entry): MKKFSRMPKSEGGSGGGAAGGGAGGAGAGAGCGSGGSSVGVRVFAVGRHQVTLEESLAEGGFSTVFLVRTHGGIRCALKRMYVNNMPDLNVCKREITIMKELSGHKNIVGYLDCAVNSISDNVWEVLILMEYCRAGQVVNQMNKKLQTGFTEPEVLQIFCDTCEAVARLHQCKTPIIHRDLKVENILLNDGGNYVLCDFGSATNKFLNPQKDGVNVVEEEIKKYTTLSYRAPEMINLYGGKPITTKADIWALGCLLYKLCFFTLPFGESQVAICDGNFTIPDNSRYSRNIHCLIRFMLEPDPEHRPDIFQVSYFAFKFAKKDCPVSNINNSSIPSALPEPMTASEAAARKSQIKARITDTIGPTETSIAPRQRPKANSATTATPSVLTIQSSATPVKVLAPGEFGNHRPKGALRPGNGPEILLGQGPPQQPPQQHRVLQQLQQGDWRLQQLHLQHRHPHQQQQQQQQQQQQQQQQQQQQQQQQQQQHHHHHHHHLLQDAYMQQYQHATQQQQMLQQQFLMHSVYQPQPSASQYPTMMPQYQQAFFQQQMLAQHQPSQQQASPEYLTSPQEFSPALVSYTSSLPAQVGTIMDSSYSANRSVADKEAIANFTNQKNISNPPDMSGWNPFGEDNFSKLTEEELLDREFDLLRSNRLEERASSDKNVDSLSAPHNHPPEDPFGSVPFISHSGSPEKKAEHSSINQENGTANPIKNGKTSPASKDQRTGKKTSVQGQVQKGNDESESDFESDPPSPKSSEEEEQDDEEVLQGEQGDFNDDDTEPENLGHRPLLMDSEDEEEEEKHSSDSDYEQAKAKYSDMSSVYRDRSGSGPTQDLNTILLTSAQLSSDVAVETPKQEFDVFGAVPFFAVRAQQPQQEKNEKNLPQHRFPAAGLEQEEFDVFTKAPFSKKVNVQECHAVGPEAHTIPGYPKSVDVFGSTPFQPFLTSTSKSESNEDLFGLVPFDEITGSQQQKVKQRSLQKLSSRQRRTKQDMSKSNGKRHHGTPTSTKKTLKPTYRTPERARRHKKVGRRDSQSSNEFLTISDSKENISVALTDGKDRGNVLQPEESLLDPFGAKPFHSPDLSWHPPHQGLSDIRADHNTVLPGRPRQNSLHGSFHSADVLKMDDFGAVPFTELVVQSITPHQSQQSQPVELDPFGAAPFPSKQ

SMILES: CCS(=O)(=O)N1CC(CC#N)(n2cc(-c3ncnc4[nH]ccc34)cn2)C1 [Baricitinib, baricitinib]
- antiviral activity in Calu-3 cells (rSARS-CoV-2/Nluc): largely no antiviral activity
- JAK2 (Other targets, measure not stated) (JAK2): 5.7 nM
- TYK2 (Other targets, measure not stated) (TYK2): 53 nM

SMILES: C#Cc1cccc(Nc2ncnc3cc(OCCOC)c(OCCOC)cc23)c1 [Erlotinib, erlotinib]
- EC50 (rSARS-CoV-2/Nluc): > 20 µM
- ErbB1 (Other targets, measure not stated) (EGFR): 0.7 nM
- STK10 (Other targets, measure not stated) (STK10): 19 nM
- YSK4 (Other targets, measure not stated) (YSK4): 25 nM
- SLK (Other targets, measure not stated) (SLK): 26 nM

SMILES: C=CC(=O)Nc1cccc(-c2snc3cc(-c4ccc(N)c(OC)c4)cnc23)c1 [RMC-242, N-(3-(6-(4-amino-3-methoxyphenyl)isothiazolo [4,3-b]pyridin-3-yl)phenyl) acrylamide]
- Kd (AAK1): 4.1 µM
- Kd (BIKE): > 15 µM
- EC50 (rSARS-CoV-2/Nluc): 1.6 µM
- CC50 at 24 h post infection [1]: 16 µM
- CC50 at 24 h post infection [2]: > 20 µM

SMILES: COc1cc(Nc2ccnc3ccc(Br)cc23)cc(OC)c1OC [SGC-GAK-1]
- EC50 (rSARS-CoV-2/Nluc): 2.3 µM
- CC50 at 24 h post infection [1]: > 20 µM
- CC50 at 24 h post infection [2]: > 20 µM
- RIPK2 (Other targets, measure not stated) (RIPK2): 110 nM
- ADCK3 (Other targets, measure not stated) (ADCK3): 190 nM
- NLK (Other targets, measure not stated) (NLK): 520 nM

SMILES: CCN(CC)CCNC(=O)c1c(C)[nH]c(/C=C2\C(=O)Nc3ccc(F)cc32)c1C [Sunitinib, sunitinib]
- EC50 (rSARS-CoV-2/Nluc): 2.9 µM
- CC50 at 24 h post infection [1]: 12.2 µM
- CC50 at 24 h post infection [2]: > 20 µM
- PDGFRβ (Other targets, measure not stated) (PDGFRβ): 2 nM
